The source made the active and inactive calls. No cut-off for these calls is given here.
How the values were obtained:
[1] = molecular target: T1, Glutathione reductase, mitochondrial (Mus musculus) (UniProt P47791); assay: Inhibition of Mus musculus (mouse) glutathione reductase isolated from liver at 200 uM
T1 sequence (whole entry): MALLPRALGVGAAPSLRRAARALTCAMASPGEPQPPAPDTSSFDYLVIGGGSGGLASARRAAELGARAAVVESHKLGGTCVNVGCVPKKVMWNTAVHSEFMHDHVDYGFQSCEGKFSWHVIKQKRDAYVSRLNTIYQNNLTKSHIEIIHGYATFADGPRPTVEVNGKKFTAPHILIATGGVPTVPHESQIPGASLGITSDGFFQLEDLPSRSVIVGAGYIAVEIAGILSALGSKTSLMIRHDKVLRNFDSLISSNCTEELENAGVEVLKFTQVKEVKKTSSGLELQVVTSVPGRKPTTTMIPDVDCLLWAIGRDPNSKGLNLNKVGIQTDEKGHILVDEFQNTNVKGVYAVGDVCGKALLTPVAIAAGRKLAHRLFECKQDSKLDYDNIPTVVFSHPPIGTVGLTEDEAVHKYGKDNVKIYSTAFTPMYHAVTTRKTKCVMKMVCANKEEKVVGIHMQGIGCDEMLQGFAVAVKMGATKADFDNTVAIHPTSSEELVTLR

[2] = molecular target: T2, Glutamate--cysteine ligase (Onchocerca volvulus) (UniProt Q9NFN6); assay: Inhibition of Setaria cervi glutamate cysteine ligase at 0.25 to 200 uM
T2 sequence (whole entry): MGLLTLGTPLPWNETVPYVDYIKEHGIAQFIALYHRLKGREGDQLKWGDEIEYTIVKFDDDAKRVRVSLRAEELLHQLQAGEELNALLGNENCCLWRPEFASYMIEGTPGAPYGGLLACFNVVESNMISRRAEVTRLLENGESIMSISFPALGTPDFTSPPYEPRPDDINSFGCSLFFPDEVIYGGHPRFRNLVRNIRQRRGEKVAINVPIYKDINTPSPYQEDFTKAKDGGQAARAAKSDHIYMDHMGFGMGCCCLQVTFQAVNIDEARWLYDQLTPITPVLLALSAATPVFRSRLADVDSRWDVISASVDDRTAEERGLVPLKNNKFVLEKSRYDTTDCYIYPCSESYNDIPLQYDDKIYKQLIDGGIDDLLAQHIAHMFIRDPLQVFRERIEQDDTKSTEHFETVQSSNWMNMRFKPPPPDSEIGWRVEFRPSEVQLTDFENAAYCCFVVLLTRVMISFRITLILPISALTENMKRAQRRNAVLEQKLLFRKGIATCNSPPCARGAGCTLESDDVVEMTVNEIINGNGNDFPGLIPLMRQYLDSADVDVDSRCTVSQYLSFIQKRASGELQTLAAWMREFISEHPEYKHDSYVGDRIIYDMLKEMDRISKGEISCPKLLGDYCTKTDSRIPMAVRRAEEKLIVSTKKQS

[3] = molecular target: T3, Glutamate--cysteine ligase catalytic subunit (Mus musculus) (UniProt P97494); assay: Inhibition of Mus musculus (mouse) glutamate cysteine ligase isolated from liver at 200 uM
T3 sequence (whole entry): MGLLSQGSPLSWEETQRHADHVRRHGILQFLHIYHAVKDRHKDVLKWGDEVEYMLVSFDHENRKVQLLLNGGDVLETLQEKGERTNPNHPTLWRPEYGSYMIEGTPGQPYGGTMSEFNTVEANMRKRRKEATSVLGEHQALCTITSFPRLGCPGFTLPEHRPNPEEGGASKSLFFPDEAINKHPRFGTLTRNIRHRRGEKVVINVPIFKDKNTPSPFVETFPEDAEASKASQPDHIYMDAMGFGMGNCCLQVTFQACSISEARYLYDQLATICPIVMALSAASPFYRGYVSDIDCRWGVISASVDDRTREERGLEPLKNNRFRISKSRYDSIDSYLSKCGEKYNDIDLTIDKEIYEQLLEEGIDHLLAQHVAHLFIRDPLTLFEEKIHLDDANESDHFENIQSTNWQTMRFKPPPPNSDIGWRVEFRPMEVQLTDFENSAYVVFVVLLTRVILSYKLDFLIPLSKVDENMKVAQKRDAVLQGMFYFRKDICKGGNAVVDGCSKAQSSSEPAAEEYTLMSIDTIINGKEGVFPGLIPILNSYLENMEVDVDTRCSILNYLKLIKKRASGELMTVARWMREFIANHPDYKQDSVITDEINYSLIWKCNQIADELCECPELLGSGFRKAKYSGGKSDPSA

[4] = molecular target: T4, Probable glutathione reductase 2 (Caenorhabditis elegans) (UniProt P30635); assay: Inhibition of Setaria cervi glutathione reductase at 2 to 200 uM
T4 sequence (whole entry): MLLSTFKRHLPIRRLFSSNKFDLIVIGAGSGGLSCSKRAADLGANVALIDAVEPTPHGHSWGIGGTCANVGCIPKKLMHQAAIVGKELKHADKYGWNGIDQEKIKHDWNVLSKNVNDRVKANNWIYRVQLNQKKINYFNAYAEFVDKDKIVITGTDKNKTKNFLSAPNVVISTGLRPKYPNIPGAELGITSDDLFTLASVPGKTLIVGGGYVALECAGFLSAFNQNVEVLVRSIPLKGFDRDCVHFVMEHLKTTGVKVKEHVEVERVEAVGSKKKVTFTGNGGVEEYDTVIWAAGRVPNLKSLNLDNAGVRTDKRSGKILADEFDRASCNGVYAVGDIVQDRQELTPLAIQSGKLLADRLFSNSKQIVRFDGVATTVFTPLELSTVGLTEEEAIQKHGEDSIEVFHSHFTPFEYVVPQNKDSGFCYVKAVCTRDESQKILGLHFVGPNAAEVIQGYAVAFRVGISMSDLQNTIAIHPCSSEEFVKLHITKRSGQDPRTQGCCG

In the case of `CC1(C)O[C@H]2O[C@H](C(CC(=O)NO)NCc3ccccc3)[C@H](OCc3ccccc3)[C@H]2O1` (stereo partly drawn), the inhibition [1] is reported as “inactive”.

`CC1(C)O[C@H]2O[C@H]([C@@H]3CC(=O)N(Cc4ccccc4)C(=O)N3Cc3ccccc3)[C@H](OCc3ccccc3)[C@H]2O1` was tested, and the inhibition [1] was “inactive”.

`CCOC(=O)CC([C@H]1O[C@@H]2OC(C)(C)O[C@@H]2[C@H]1OC)N1CCC[C@H]1C(=O)OCC1c2ccccc2-c2ccccc21` (stereo partly drawn) was tested, and the inhibition [1] was “inactive”.

`CCOC(=O)CC(Nc1ccco1)[C@H]1O[C@@H]2OC(C)(C)O[C@@H]2[C@H]1OC` (stereo partly drawn) was tested, and the inhibition [1] was “inactive”.

With `CC(=O)c1cccc(N2C(=O)[C@H](CC(C)C)N(C[C@H]3O[C@@H]4OC(C)(C)O[C@@H]4[C@H]3OCc3ccccc3)C2=O)c1` the inhibition [1] was “inactive”.

For `CCOC(=O)C[C@H](C[C@H]1O[C@@H]2OC(C)(C)O[C@@H]2[C@H]1OC)NCc1ccccc1O`, the inhibition [1] was “inactive”.

For `CCCCCCCN[C@@H](CC(=O)OCC)[C@@H]1O[C@@H]2OC(C)(C)O[C@@H]2[C@H]1OC`, the inhibition [1] was “inactive”.

`NCCSSCCN` was tested, and the inhibition [2] was 19%.

`CCCCCCCNC(CC(=O)O)[C@@H]1O[C@@H]2OC(C)(C)O[C@@H]2[C@H]1OC` (stereo partly drawn) was tested, and the inhibition [1] was “inactive”.

With `CO[C@@H]1[C@H]2OC(C)(C)O[C@H]2O[C@@H]1[C@H](CC(N)=O)N(Cc1ccccc1)C(=O)Nc1cccc(C(C)=O)c1` the inhibition [3] was 18%.

With `CCCc1nccn1C(CC(=O)OCC)[C@H]1O[C@@H]2OC(C)(C)O[C@@H]2[C@H]1OC` (stereo partly drawn) the inhibition [1] was “inactive”.

`CCCCCCCNC(CC(=O)NO)[C@H]1O[C@@H]2OC(C)(C)O[C@@H]2[C@H]1OCc1ccccc1` (stereo partly drawn) was tested, and the inhibition [1] was “inactive”.

`CO[C@@H]1[C@H]2OC(C)(C)O[C@H]2O[C@@H]1C1CC(=O)N(Cc2ccccc2)C(=O)N1CCC(C)CC(C)C` (stereo partly drawn) was tested, and the inhibition [1] was “inactive”.

`CCCCCCCCCCCCCCCCNC(CC(=O)NO)[C@H]1O[C@@H]2OC(C)(C)O[C@@H]2[C@H]1OC` (stereo partly drawn) was tested, and the inhibition [1] was 71%.

For `CCOC(=O)CC([C@H]1O[C@@H]2OC(C)(C)O[C@@H]2[C@H]1OC)N(CCC(C)CC(C)C)C(=O)NCc1ccccc1` (stereo partly drawn), the inhibition [1] was “inactive”.

For `CC1(C)O[C@H]2O[C@H](C(CC(=O)NO)N3CCCCC3)[C@H](OCc3ccccc3)[C@H]2O1` (stereo partly drawn), the inhibition [1] was “inactive”.

`CN(C)c1ccc2nc3ccc(=[N+](C)C)cc-3sc2c1` was tested, and the inhibition [4] was 24%.

`CCOC(=O)C[C@@H](Nc1ccccc1O)[C@H]1O[C@@H]2OC(C)(C)O[C@@H]2[C@H]1OC` was tested, and the inhibition [1] was “inactive”.

For `CCOC(=O)CC(Nc1ccco1)[C@H]1O[C@@H]2OC(C)(C)O[C@@H]2[C@H]1OCc1ccccc1` (stereo partly drawn), the inhibition [1] was “inactive”.

For `CCCCCCCCCCCCNC(CC(=O)NO)[C@H]1O[C@@H]2OC(C)(C)O[C@@H]2[C@H]1OCc1ccccc1` (stereo partly drawn), the inhibition [1] was “inactive”.

With `CO[C@@H]1[C@H]2OC(C)(C)O[C@H]2O[C@@H]1[C@@H]1CC(=O)N(Cc2ccccc2)C(=O)N1Cc1ccccc1` the inhibition [3] was “inactive”.

With `CO[C@@H]1[C@H]2OC(C)(C)O[C@H]2O[C@H]1C(CC(=O)O)NCCC(C)CC(C)C` (stereo partly drawn) the inhibition [1] was “inactive”.

For `COc1ccc(CN2C(=O)N(c3ccc(C(C)=O)cc3)C(=O)C[C@H]2[C@H]2O[C@@H]3OC(C)(C)O[C@@H]3[C@H]2OCc2ccccc2)cc1`, the inhibition [1] was “inactive”.

Reference: ChEMBL document CHEMBL3045894, “GLUTATHIONE SYNTHESIS IN FILARIAL WORMS: AN ATTRACTIVE TARGET FOR THE DESIGN AND SYNTHESIS OF NEW ANTIFILARIALS” (Med Chem Res, 2004)
